Here are results for 31 molecules from patent US11485713B2, “Androgen receptor modulators and methods for their use” (ESSA Pharma, Inc., priority 2018, dated 2022).

Data set [1] can be described thus: Microsomal stability assay, MLM. The format is in vitro ADME. Particulars: mouse, pH 7.4, 1 μM test compound, 0.5 mg/mL liver microsomes protein, 37° C., 0-60 min, read-out: MLM +/− NADPH: Clint (μL/min/mg protein). From the text: (§1) Microsomal Stability Assay: Microsomal stability assay is a widely used in vitro model to characterize the metabolic conversion by phase I enzymes, such as cytochrome P450 (CYP) enzymes. Since metabolism is known to be highly variable in different species, microsomal stability assay is commonly run in multiple species. Metabolic stability of testing compound can be evaluated using human, rat, mouse, or other animal liver or intestine microsomes to predict intrinsic clearance.
(§2) The assay was carried out in 96-well microtiter plates at 37° C. Reaction mixtures (25 μL) contained a final concentration of 1 μM test compound, 0.5 mg/mL liver microsomes protein, and 1 mM NADPH and/or 1 mM UDPGA (with alamethicin) in 100 mM potassium phosphate, pH 7.4 buffer with 3 mM MgCl2. The incubation was done with N=1, but duplicate incubation at each time point can be prepared if necessary. At each of the time points (for example, 0, 15, 30, and 60 minutes), 150 μL of quench solution (100% acetonitrile with 0.1% formic acid) with internal standard was transferred to each well. Besides the zero minute controls, mixtures containing the same components except the NADPH can also be prepared as the negative control. Verapamil was included as a positive control to verify assay performance. Plates were sealed, vortexed, and centrifuged at 4° C. for 15 minutes at 4000 rpm. The supernatant is transferred to fresh plates for LC/MS/MS analysis.
(§3) Summarized conditions: [Compound]=1 μM, [LM]=0.5 mg/mL, [NADPH]=1 mM and/or [UDPGA]=1 mM, Buffer=100 mM Potassium Phosphate, pH 7.4 with 3 mM MgCl2, Time=0, 15, 30, and 60 min, and Temperature=37° C.
(§4) All samples were analyzed on LC/MS/MS using an AB Sciex API 4000 instrument, coupled to a Shimadzu LC-20AD LC Pump system. Analytical samples were separated using a Waters Atlantis T3 dC18 reverse phase HPLC column (20 mm×2.1 mm) at a flow rate of 0.5 mL/min. The mobile phase consisted of 0.1% formic acid in water (solvent A) and 0.1% formic acid in 100% acetonitrile (solvent B).
(§5) The extent of metabolism is calculated as the disappearance of the test compound, compared to the 0-min time incubation. Initial rates are calculated for the compound concentration and used to determine half-life (t½) values and subsequently, the intrinsic clearance (Clint). Clint=(0.693)(1/t½ (min))(g of liver/kg of body weight)(mL incubation/mg of microsomal protein)(45 mg of microsomal protein/g of liver weight)

Data set [2] in a line: Microsomal stability assay, HLM. The format is in vitro ADME. The settings on record: human, pH 7.4, 1 μM test compound, 0.5 mg/mL liver microsomes protein, 37° C., 0-60 min, read-out: HLM +/− NADPH: Clint (μL/min/mg protein).
Text: as §1, §2, §3, §4, §5
For orientation: Microsomes from liver hold many membrane-bound enzymes, among them those of drug oxidation.

Data set [3] deals with LNCaP ARE-Luc. Description: Luciferase assay in LNCaP cell lysates (LNCaP ARE-Luc). It counts as cell-based. Particulars: Homo sapiens, Firefly Luciferase Assay System, read-out: LNCaP ARE-Luc % inhibition IC50 Ranges. The method, then:
Lysates were thawed on ice then collected into V-bottom 96-well tissue culture plates. Lysates were centrifuged at 4° C. for 5 minutes at 4000 rpm. To measure luminescence of LNCaP cell lysates the Firefly Luciferase Assay System (Promega) was employed, according to manufacturer's protocol. Relative luminescence units (RLU) in cell lysates were detected for 10 seconds using Promega GoMax-Multi Detection Luminometer (Promega).
Statistical analyses were performed using GraphPad Prism (Version 6.01 for Windows; La Jolla, Calif., USA). Comparisons between treatment and control groups were compared using Two-Way ANOVA with post-hoc Dunnett's and Tukey's tests. Differences were considered statistically significant at P values less than 0.05. Densitometric quantification of relative AR levels was determined by Image.

In the case of `Cc1cc(C(C)(C)c2ccc(OCC(=O)CNS(C)(=O)=O)cc2)ccc1OCCCCl` [Compound A1], the microsomal CLint at 1 μM in data set [1] and in data set [2] was at least 48 µL/min/mg in each case. The 50% inhibitory concentration (IC50) in data set [3] is under 100 nM.
As for `Cc1cc(OCCCCl)ccc1C(C)(C)c1ccc(OCC(=O)CNS(C)(=O)=O)cc1` [Compound A2], the microsomal CLint at 1 μM in data set [1] and in data set [2] was at least 48 µL/min/mg throughout. Moreover, in data set [3], the IC50 is 100 to 250 nM.
For `CC(C)(c1ccc(OCC(=O)CNS(C)(=O)=O)cc1)c1ccc(OCCCCl)c(Cl)c1` [Compound A5], the microsomal CLint at 1 μM in data set [1] and in data set [2] was at least 48 µL/min/mg each time. The IC50 in data set [3] was under 100 nM.
As for `Cc1cc(C(C)(C)c2ccc(OCCCCl)cc2)ccc1OCC(=O)CNS(C)(=O)=O` [Compound A9], the microsomal CLint at 1 μM in data set [1] and in data set [2] was at least 48 µL/min/mg throughout. Besides, in data set [3], the IC50 was at least 250 nM.
On to `CC(C)(c1ccc(OCCCCl)cc1)c1ccc(OCC(=O)CNS(C)(=O)=O)c(Cl)c1` [Compound A13], for which the microsomal CLint at 1 μM in data set [1] and in data set [2] was at least 48 µL/min/mg throughout. In data set [3], the IC50 is at least 250 nM.
In the case of `CS(=O)(=O)NCC(=O)COc1ccc(Cc2cc(Cl)c(OCCCCl)c(Cl)c2)cc1` [Compound A21], the microsomal CLint at 1 μM in data set [1] and in data set [2] was at least 48 µL/min/mg each time. Besides, the IC50 in data set [3] was at least 250 nM.
Turning to `CN(c1ccc(OCC(=O)CNS(C)(=O)=O)cc1)c1cc(Cl)c(OCCCCl)c(Cl)c1` [Compound A23], the microsomal CLint at 1 μM in data set [1] and in data set [2] was at least 48 µL/min/mg in each case. Also, the IC50 in data set [3] is at least 250 nM.
In the case of `CS(=O)(=O)NCC(=O)COc1ccc(-c2cc(Cl)c(OCC(O)CCl)c(Cl)c2)cc1` (stereo not drawn) [Compound A25], the microsomal CLint at 1 μM in data set [1] and in data set [2] was at least 48 µL/min/mg each time. The IC50 in data set [3] was at least 250 nM.
On to `CC(C)(c1ccc(NCC(=O)CNS(C)(=O)=O)cc1)c1cc(Cl)c(OCCCCl)c(Cl)c1` [Compound A27], for which the figures for the microsomal CLint at 1 μM in data set [1] and in data set [2] were 12 to 48 µL/min/mg and at least 48 µL/min/mg, respectively. For the same molecule, in data set [3], the IC50 was at least 250 nM.
The corresponding values for `CN(CC(=O)CNS(C)(=O)=O)c1ccc(C(C)(C)c2cc(Cl)c(OCCCCl)c(Cl)c2)cc1` [Compound A28] are 12 to 48 µL/min/mg, 12 to 48 µL/min/mg and at least 250 nM.
For `CC(C)NC(=O)COc1ccc(C(C)(C)c2cc(Cl)c(OCCCCl)c(Cl)c2)cc1` [Compound A30], in that order: under 12 µL/min/mg, 12 to 48 µL/min/mg and at least 250 nM.
For `CC(C)(c1ccc(OCC(=O)CNS(C)(=O)=O)cc1)c1cc(Cl)c(CCCCCl)c(Cl)c1` [Compound A34], in that order: at least 48 µL/min/mg, at least 48 µL/min/mg and at least 250 nM.
On to `CC(C)(c1ccc(OCC(=O)CNS(C)(=O)=O)cc1)c1cc(Cl)c(OCc2cccc(Cl)c2)c(Cl)c1` [Compound A37], for which the microsomal CLint at 1 μM in data set [1] and in data set [2] was at least 48 µL/min/mg in each case. Further, in data set [3], the IC50 was at least 250 nM.
For `CC(C)(c1ccc(OCC(N)=O)cc1)c1cc(Cl)c(OCCCCl)c(Cl)c1` [Compound A42], the microsomal CLint at 1 μM is under 12 µL/min/mg in data set [1] and 12 to 48 µL/min/mg in data set [2]. In data set [3], the IC50 was at least 250 nM.
As for `CS(=O)(=O)NCC(=O)COc1ccccc1Cc1cc(Cl)c(OCCCCl)c(Cl)c1` [Compound A49], the microsomal CLint at 1 μM in data set [1] and in data set [2] was at least 48 µL/min/mg in each case. In addition, in data set [3], the IC50 was at least 250 nM.
For `CC(=O)NCC(=O)COc1ccc(C(C)(C)c2cc(Cl)c(OCCCCl)c(Cl)c2)cc1` [Compound A65], in data set [2], the microsomal CLint at 1 μM was at least 48 µL/min/mg. Besides, the IC50 in data set [3] is at least 250 nM.
Turning to `CN(CC(=O)COc1ccc(C(C)(C)c2cc(Cl)c(OCCCCl)c(Cl)c2)cc1)S(C)(=O)=O` [Compound A69], the microsomal CLint at 1 μM in data set [2] is at least 48 µL/min/mg. Besides, in data set [3], the IC50 was at least 250 nM.
The corresponding values for `CC(C)N(c1ccc(OCC(=O)CNS(C)(=O)=O)cc1)c1cc(Cl)c(OCCCCl)c(Cl)c1` [Compound A70] are at least 48 µL/min/mg and at least 250 nM.
For `CC(=O)N(c1ccc(OCC(=O)CNS(C)(=O)=O)cc1)c1cc(Cl)c(OCCCCl)c(Cl)c1` [Compound A71, N-(3,5-dichloro-4-(3-chloropropoxy)phenyl)-N-(4-(3-(methylsulfonamido)-2-oxopropoxy)phenyl)acetamide], in that order: at least 48 µL/min/mg and at least 250 nM.
The corresponding values for `CS(=O)(=O)NCC(=O)COc1ccc(-c2cc(Cl)c(OCCCCl)c(Cl)c2)cc1` [Compound A73, N-(3-((3′,5′-dichloro-4′-(3-chloropropoxy)-[1,1′-biphenyl]-4-yl)oxy)-2-oxopropyl)methanesulfonamide] are 12 to 48 µL/min/mg and at least 250 nM.
Turning to `CS(=O)(=O)NCC(=O)COc1ccc(CCc2cc(Cl)c(OCC(O)CCl)c(Cl)c2)cc1` (stereo not drawn) [Compound A75, N-(3-(4-(3,5-dichloro-4-(3-chloro-2-hydroxypropoxy)phenethyl)phenoxy)-2-oxopropyl)methanesulfonamide], the microsomal CLint at 1 μM in data set [2] was at least 48 µL/min/mg. Moreover, the IC50 in data set [3] fell in the range of 100 to 250 nM.
The corresponding values for `CS(=O)(=O)NCC(=O)CCOc1ccc(-c2cc(Cl)c(OCCCCl)c(Cl)c2)cc1` [Compound A76] are 12 to 48 µL/min/mg and at least 250 nM.
Take `CC(C)(c1cccc(OCC(=O)CNS(C)(=O)=O)c1)c1ccc(Cl)c(OCCCCl)c1Cl` [Compound A77]: the microsomal CLint at 1 μM in data set [1] is 12 to 48 µL/min/mg; in data set [2] it was under 12 µL/min/mg. Besides, the IC50 in data set [3] was under 100 nM.
As to `CC(C)(c1ccc(OCC(=O)CNS(C)(=O)=O)cc1)c1cc(Cl)c(OCc2ccccc2Cl)c(Cl)c1` [Compound A79], the microsomal CLint at 1 μM in data set [2] was at least 48 µL/min/mg. Besides, in data set [3], the IC50 was at least 250 nM.
For `CC(C)(c1ccc(OCC(=O)NNS(C)(=O)=O)cc1)c1cc(Cl)c(OCCCCl)c(Cl)c1` [Compound A80], in that order: 12 to 48 µL/min/mg and at least 250 nM.
The corresponding values for `CC(C)(c1ccc(C(=O)CCCNS(C)(=O)=O)cc1)c1cc(Cl)c(OCCCCl)c(Cl)c1` [Compound A84] are 12 to 48 µL/min/mg and at least 250 nM.
For `CC(=O)C(=O)Nc1ccc(C(C)(C)c2cc(Cl)c(OCCCCl)c(Cl)c2)cc1` [Compound A85], in that order: at least 48 µL/min/mg and at least 250 nM.
As to `CC(C)(c1ccc(OCC(=O)C(F)(F)F)cc1)c1cc(Cl)c(OCCCCl)c(Cl)c1` [Compound A91, 3-(4-(2-(3,5-dichloro-4-(3-chloropropoxy)phenyl)propan-2-yl)phenoxy)-1,1,1-trifluoropropan-2-one], the microsomal CLint at 1 μM in data set [2] was under 12 µL/min/mg. In data set [3], the IC50 was at least 250 nM.
The corresponding values for `CC(C)(c1ccc(NC(=O)C(=O)C(F)(F)F)cc1)c1cc(Cl)c(OCCCCl)c(Cl)c1` [Compound A93] are under 12 µL/min/mg and at least 250 nM.
The corresponding values for `CC(C)(c1ccc(OC(F)(F)C(=O)CCNS(C)(=O)=O)cc1)c1cc(Cl)c(OCCCCl)c(Cl)c1` [Compound A94, N-(4-(4-(2-(3,5-dichloro-4-(3-chloropropoxy)phenyl)propan-2-yl)phenoxy)-4,4-difluoro-3-oxobutyl)methanesulfonamide] are at least 48 µL/min/mg and at least 250 nM.
As for `CC(O)(CCl)COc1c(Cl)cc(C(C)(C)c2ccc(NC(=O)C(=O)C(F)(F)F)cc2)cc1Cl` (stereo not drawn) [Compound A95], the microsomal CLint at 1 μM in data set [2] was under 12 µL/min/mg. In addition, in data set [3], the IC50 is at least 250 nM.

For orientation: IC50 means the concentration at which inhibition is half-maximal.
